The text below walks through data of patent US11345666B2, “Phenyl and pyridinyl substituted imidazoles as modulators of RORγT” (Janssen Pharmaceutica NV, priority 2018, dated 2022).

For assay [1], the target named is human RORγt ligand binding domain (RORγt LBD) (Homo sapiens (Human), UniProt P51449). Description: RORγt ThermoFluor assay. The source says:
ThermoFluor® is a fluorescence based assay that estimates ligand binding affinities by measuring the effect of a ligand on protein thermal stability (Pantoliano, M. W., Petrella, E. C., Kwasnoski, J. D., Lobanov, V. S., Myslik, J., Graf, E., Carver, T., Asel, E., Springer, B. A., Lane, P., and Salemme, F. R. (2001) High-density miniaturized thermal shift assays as a general strategy for drug discovery. J Biomol Screen 6, 429-40, and Matulis, D., Kranz, J. K., Salemme, F. R., and Todd, M. J. (2005) Thermodynamic stability of carbonic anhydrase: measurements of binding affinity and stoichiometry using ThermoFluor. Biochemistry 44, 5258-66). This approach is applicable to a wide variety of systems, and rigorous in theoretical interpretation through quantitation of equilibrium binding constants (KD).
The shift in the melting point described as a ΔTm is proportional to the concentration and affinity of the ligand.
RORγt ThermoFluor® Assay Construct
Nucleotides 850-1635 (SEQ ID NO:2) coding for the wild type human RORγt ligand binding domain (RORγt LBD) were cloned into the pHIS 1 vector, a modified pET E. coli expression vector (Accelagen, San Diego), containing an in-frame N-terminal His-tag and a TurboTEV protease cleavage site (ENLYFQG, SEQ ID NO:3) upstream of the cloned insert sequence. The amino acid sequence for the RORγt construct used in the Thermofluor® assay is shown as SEQ ID NO:4.
ThermoFluor® experiments were carried out using instruments owned by Janssen Research and Development, L.L.C. through its acquisition of 3-Dimensional Pharmaceuticals, Inc. 1,8-ANS (Invitrogen) was used as a fluorescent dye. Protein and compound solutions are dispensed into black 384-well polypropylene PCR microplates (Abgene) and overlayed with silicone oil (1 μL, Fluka, type DC 200) to prevent evaporation.
Bar-coded assay plates are robotically loaded onto a thermostatically controlled PCR-type thermal block and then heated at a typical ramp-rate of 1° C./min for all experiments. Fluorescence was measured by continuous illumination with UV light (Hamamatsu LC6) supplied via fiber optic and filtered through a band-pass filter (380-400 nm; >6 OD cutoff). Fluorescence emission of the entire 384-well plate was detected by measuring light intensity using a CCD camera (Sensys, Roper Scientific) filtered to detect 500±25 nm, resulting in simultaneous and independent readings of all 384 wells. Images were collected at each temperature, and the sum of the pixel intensity in a given area of the assay plate was recorded versus temperature. Reference wells contained RORγt without compounds, and the assay conditions were as follows: • 0.065 mg/mL RORγt • 60 μM 1,8-ANS • 100 mM Hepes, pH 7.0 • 10 mM NaCl • 2.5 mM GSH • 0.002% Tween-20
Project compounds were arranged in a pre-dosed mother plate (Greiner Bio-one) wherein compounds are serially diluted in 100% DMSO by 1:2 from a high concentration of 10 mM over 12 columns within a series (column 12 is a reference well containing DMSO, no compound). The compounds were robotically dispensed directly into assay plates (1×=46 nL) using a Hummingbird capillary liquid handling instrument (Digilab). Following compound dispense, protein and dye in buffer was added to achieve the final assay volume of 3 μL, followed by 1 μL of silicone oil.
The binding affinity was estimated as described previously (Matulis, D., Kranz, J. K., Salemme, F. R., and Todd, M. J. (2005) Thermodynamic stability of carbonic anhydrase: measurements of binding affinity and stoichiometry using ThermoFluor®. Biochemistry 44, 5258-66) using the following thermodynamic parameters of protein unfolding: […]
For orientation: In DSF a fluorescence change marks the thermal transition of the protein.

Assay [2] has as its target full-length human RORγt (Homo sapiens (Human), UniProt P51449). Kind of assay: RORγt (full-length human) reporter assay, conditions A or B. Type of assay: cell-based. As to conditions: for pIC50: HEK293T cells, read-out: RORγt (FL) Reporter Assay A or B, IC50; for inhibition at 6 µM: read-out: RORγt (FL) Reporter Assay A or B, % inhibition @ 6 μM, 6 μM compound concentration; for inhibition at 2 µM: 2 μM compound concentration (**); for inhibition at 3 µM: 3 μM compound concentration (*). In short, it runs like this:
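HEK293T cells transiently co-transfected (PEI) with GAL4-DBD–RORγt, GAL4-firefly luciferase and CMV-Renilla reporters; condition A 35,000 cells/well, 170.5 ng DNA/well; condition B 8750 cells/well, 42.6 ng DNA/well.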

Where [3] appears, read: read-out: RORγt (FL) Reporter Assay A or B, % inhibition.

For orientation: pKd means the negative decadic logarithm of the Kd, by convention in mol/L. A lower pKd goes with a large Kd. What is called pIC50 is the negative decadic logarithm of the IC50, by convention in mol/L. By inhibition is commonly meant the drop in the measured response relative to a control, in per cent.

pIC50, pKd: −log10 of the molar value.

Sequence of full-length human RORγt (P51449 other isoform, or with tags, fused parts or gaps): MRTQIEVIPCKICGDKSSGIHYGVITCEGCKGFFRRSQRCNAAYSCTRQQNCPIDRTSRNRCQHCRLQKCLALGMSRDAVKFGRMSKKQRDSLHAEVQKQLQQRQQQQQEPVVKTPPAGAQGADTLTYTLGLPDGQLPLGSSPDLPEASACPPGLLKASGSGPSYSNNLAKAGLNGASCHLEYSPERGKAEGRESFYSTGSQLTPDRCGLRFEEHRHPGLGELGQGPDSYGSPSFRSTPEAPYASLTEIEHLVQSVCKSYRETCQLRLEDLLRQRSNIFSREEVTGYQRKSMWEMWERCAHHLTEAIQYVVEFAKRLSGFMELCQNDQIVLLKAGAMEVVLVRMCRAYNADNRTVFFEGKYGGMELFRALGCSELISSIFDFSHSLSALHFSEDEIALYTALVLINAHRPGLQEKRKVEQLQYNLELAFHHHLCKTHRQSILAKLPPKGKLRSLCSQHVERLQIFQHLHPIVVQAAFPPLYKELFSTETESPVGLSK
Sequence of human RORγt ligand binding domain (RORγt LBD) (P51449 other isoform, or with tags, fused parts or gaps): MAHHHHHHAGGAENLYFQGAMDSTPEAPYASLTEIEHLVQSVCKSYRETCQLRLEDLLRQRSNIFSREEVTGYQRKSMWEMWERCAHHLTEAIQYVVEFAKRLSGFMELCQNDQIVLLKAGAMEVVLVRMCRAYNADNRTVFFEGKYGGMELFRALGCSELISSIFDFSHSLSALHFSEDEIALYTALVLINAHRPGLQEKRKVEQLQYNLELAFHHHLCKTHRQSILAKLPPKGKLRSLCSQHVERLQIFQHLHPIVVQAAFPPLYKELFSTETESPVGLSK

In the case of `CCc1nc(C(=O)NC[C@]2(O)CC[C@@H](S(C)(=O)=O)CC2)c(Cl)n1-c1c(F)cc(CC(O)(C(F)(F)F)C(F)(F)F)cc1F` [Example 108, 5-Chloro-1-(2,6-difluoro-4-(3,3,3-trifluoro-2-hydroxy-2-(trifluoromethyl)propyl)phenyl)-2-ethyl-N-(((1s,4s)-1-hydroxy-4-(methylsulfonyl)cyclohexyl)methyl)-1H-imidazole-4-carboxamide], the pKd in assay [1] is 7.00. In assay [2], the pIC50 was 6.47 and the inhibition at 6 µM worked out at 99%.

On to `CCc1nc(C(=O)NC[C@]2(C#N)CC[C@@H](S(C)(=O)=O)CC2)c(C#N)n1-c1ncc(CCC(F)(F)F)cc1OC` [Example 121, 5-Cyano-N-(((1s*,4s*)-1-cyano-4-(methylsulfonyl)cyclohexyl)methyl)-2-ethyl-1-(3-methoxy-5-(3,3,3-trifluoropropyl)pyridin-2-yl)-1H-imidazole-4-carboxamide], for which the pKd in assay [1] is 6.52. For the same molecule, in assay [2], the negative-log IC50 (pIC50) is 5.77 and the inhibition at 6 µM was 76%.

For the molecule `CCc1nc(C(=O)NC[C@]2(O)CC[C@@H](S(C)(=O)=O)CC2)c(Cl)n1-c1ccc(CC(C)C)cc1OC` (single isomer, unassigned) [Example 92, 5-Chloro-2-ethyl-N-(((1s,4S)-1-hydroxy-4-(methylsulfonyl)cyclohexyl)methyl)-1-((R*)-4-isobutyl-2-methoxyphenyl)-1H-imidazole-4-carboxamide], the negative logarithm of the Kd (pKd) in assay [1] was 9.55. Also, in assay [2], the negative-log IC50 (pIC50) was 8.15 and the inhibition at 6 µM amounted to 72%.

`CCc1nc(C(=O)NC[C@]2(O)CC[C@@H](S(C)(=O)=O)CC2)c(Cl)n1-c1ccc(CC(C)C)cc1OC` [Example 90, 5-Chloro-2-ethyl-N-(((1s,4s)-1-hydroxy-4-(methylsulfonyl)cyclohexyl)methyl)-1-(4-isobutyl-2-methoxyphenyl)-1H-imidazole-4-carboxamide]: in assay [1], the negative logarithm of the Kd (pKd) is 9.51. In addition, the inhibition at 2 µM in assay [2] (setting [3]) worked out at 67%. In assay [2], the pIC50 is 7.68.

`CCc1nc(C(=O)NC[C@H]2CC[C@H](S(C)(=O)=O)CC2)c(C#N)n1-c1ccc(CCC(F)(F)F)cc1F` [Example 93, 5-Cyano-2-ethyl-1-(2-fluoro-4-(3,3,3-trifluoropropyl)phenyl)-N-(((1r,4r)-4-(methylsulfonyl)cyclohexyl)methyl)-1H-imidazole-4-carboxamide] showed a negative logarithm of the Kd (pKd) in assay [1] of 7.03. For the same molecule, in assay [2] (setting [3]), the inhibition at 2 µM is 65%. Also, in assay [2], the negative-log IC50 (pIC50) is 6.48.

`CCc1nc(C(=O)NC[C@H]2CC[C@H](S(C)(=O)=O)CC2)c(C#N)n1-c1ccc(CCC(F)(F)F)cc1OC(F)(F)F` [Example 115, 5-Cyano-2-ethyl-N-(((1r,4r)-4-(methylsulfonyl)cyclohexyl)methyl)-1-(2-(trifluoromethoxy)-4-(3,3,3-trifluoropropyl)phenyl)-1H-imidazole-4-carboxamide]: in assay [1], the pKd was 7.00. Besides, in assay [2], the negative-log IC50 (pIC50) is 6.72 and the inhibition at 6 µM came out at 74%.

For `CCc1nc(C(=O)NC[C@H]2CC[C@H](S(C)(=O)=O)CC2)c(C)n1-c1ccc(CC(C)(C)C(F)(F)F)c(OC)c1` [Example 44, 2-Ethyl-1-(3-methoxy-4-(3,3,3-trifluoro-2,2-dimethylpropyl)phenyl)-5-methyl-N-(((1r,4r)-4-(methylsulfonyl)cyclohexyl)methyl)-1H-imidazole-4-carboxamide], the pKd in assay [1] was 8.39. In addition, the inhibition at 0.22 µM in assay [2] (0.22 μM compound concentration (******), read-out: RORγt (FL) Reporter Assay A or B, % inhibition) stood at 75%. Also, in assay [2], the negative-log IC50 (pIC50) is 7.51.

With `CCc1nc(C(=O)NC[C@]2(O)CC[C@@H](S(C)(=O)=O)CC2)cn1-c1ccc(C[C@H](C)C(F)(F)F)cc1OC` (single isomer, unassigned) [Example 19, 2-Ethyl-N-(((1s,4R)-1-hydroxy-4-(methylsulfonyl)cyclohexyl)methyl)-1-(2-methoxy-4-((S*)-3,3,3-trifluoro-2-methylpropyl)phenyl)-1H-imidazole-4-carboxamide], the negative logarithm of the Kd (pKd) in assay [1] is 7.30. Further, in assay [2] (setting [3]), the inhibition at 2 µM stood at 80%. Moreover, the pIC50 in assay [2] is 6.44.

`CCc1nc(C(=O)NC[C@]2(O)CC[C@@H](S(C)(=O)=O)CC2)c(C#N)n1-c1ccc(CCC(F)(F)F)cc1F` [Example 95, 5-Cyano-2-ethyl-1-(2-fluoro-4-(3,3,3-trifluoropropyl)phenyl)-N-(((1s,4s)-1-hydroxy-4-(methylsulfonyl)cyclohexyl)methyl)-1H-imidazole-4-carboxamide] had a pKd in assay [1] of 6.54. Further, in assay [2], the negative logarithm of the IC50 (pIC50) was 5.92 and the inhibition at 6 µM was 72%.

In assay [1], `CCc1nc(C(=O)NC[C@]2(O)CC[C@@H](S(C)(=O)=O)CC2)c(C)n1-c1ncc(CC(C(F)(F)F)C(F)(F)F)cc1OC(F)F` [Example 76, 1-(3-(Difluoromethoxy)-5-(3,3,3-trifluoro-2-(trifluoromethyl)propyl)pyridin-2-yl)-2-ethyl-N-(((1s,4s)-1-hydroxy-4-(methylsulfonyl)cyclohexyl)methyl)-5-methyl-1H-imidazole-4-carboxamide] gave a negative logarithm of the Kd (pKd) of 6.96. The inhibition at 3 µM in assay [2] (setting [3]) is 76%. Further, the negative logarithm of the IC50 (pIC50) in assay [2] was 6.36.

Molecule `CCc1nc(C(=O)NC[C@]2(O)CC[C@@H](S(C)(=O)=O)CC2)cn1-c1c(F)cc(CC(C)C(F)(F)F)cc1F` (stereo partly drawn) [Example 84, 1-(2,6-Difluoro-4-(3,3,3-trifluoro-2-methylpropyl)phenyl)-2-ethyl-N-(((1s,4s)-1-hydroxy-4-(methylsulfonyl)cyclohexyl)methyl)-1H-imidazole-4-carboxamide] showed a pKd in assay [1] of 5.66. In addition, in assay [2], the negative-log IC50 (pIC50) was 5.70 and the inhibition at 6 µM turned out to be 35%.

Regarding `CCc1nc(C(=O)NC[C@H]2CC[C@H](S(C)(=O)=O)CC2)c(C#N)n1-c1ccc(CCC(F)(F)F)cc1OC(F)F` [Example 26, 5-Cyano-1-(2-(difluoromethoxy)-4-(3,3,3-trifluoropropyl)phenyl)-2-ethyl-N-(((1r,4r)-4-(methylsulfonyl)cyclohexyl)methyl)-1H-imidazole-4-carboxamide], the pKd in assay [1] was 7.62. Further, in assay [2], the negative-log IC50 (pIC50) was 7.27 and the inhibition at 6 µM is 96%.

Turning to `CCc1nc(C(=O)NC[C@H]2CC[C@H](S(C)(=O)=O)CC2)c(C#N)n1-c1ccc(CC(C)(C)C(F)(F)F)cc1OC(F)(F)F` [Example 113, 5-Cyano-2-ethyl-N-(((1r,4r)-4-(methylsulfonyl)cyclohexyl)methyl)-1-(4-(3,3,3-trifluoro-2,2-dimethylpropyl)-2-(trifluoromethoxy)phenyl)-1H-imidazole-4-carboxamide], in assay [1], the negative logarithm of the Kd (pKd) is 8.08. Besides, the inhibition at 2 µM in assay [2] (setting [3]) was 88%. In assay [2], the negative logarithm of the IC50 (pIC50) was 7.36.

Consider `CCc1nc(C(=O)NC[C@@]2(O)CC[C@H](S(C)(=O)=O)C[C@@H]2O)c(Cl)n1-c1ncc(CC(C)(C)C(F)(F)F)cc1OC(F)F` (stereo in doubt) [Example 61, 5-Chloro-1-(3-(difluoromethoxy)-5-(3,3,3-trifluoro-2,2-dimethylpropyl)pyridin-2-yl)-N-(((1S*,2S*,4S*)-1,2-dihydroxy-4-(methylsulfonyl)cyclohexyl)methyl)-2-ethyl-1H-imidazole-4-carboxamide], for which the pKd in assay [1] was 7.34. For the same molecule, the inhibition at 3 µM in assay [2] (setting [3]) was found to be 90%. The pIC50 in assay [2] was 6.96.
